Positions of bridges follow the written chain, without caps; N, C: chain ends. Non-standard residues stand in square brackets, D forms with d. Residues, ends and D or L forms follow the SMILES beside them. *: point of attachment. NMeF = CN[C@@H](Cc1ccccc1)C(=O)O; NMeL = CN[C@@H](CC(C)C)C(=O)O; NMeV = CN[C@H](C(=O)O)C(C)C; NMeA = CN[C@@H](C)C(=O)O; Piperidide = C1CCN(*)CC1; dNMeA = CN[C@H](C)C(=O)O; Sar = CNCC(=O)O; tBu = CC(C)(C)*

From patent US9409952B2, “Peptide-compound cyclization method” (Chugai Seiyaku Kabushiki Kaisha, priority 2011, dated 2016) come the findings set out here.

Series [1] is described as follows: Metabolic stability in human hepatic microsome. The series is classed as in vitro ADME. The conditions noted are these: microsomes, pH 7.4; human hepatic microsome, NADPH(+); read-out: CL NADPH(+).
Series [2] can be described thus: PAMPA (parallel artificial membrane permeability assay). The series is classed as in vitro ADME. Conditions: PAMPA; membrane permeation rate (Pe); 50 mM MOPSO buffer pH 6.5 with 5.0% glycocholic acid, 37° C., 18 hours; read-out: iPAMPA Pe. The procedure, abridged:
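Artificial membrane was 10% (w/v) egg lecithin plus 0.5% (w/v) cholesterol in dodecane on a PVDF filter. A 10 mM DMSO stock was added at 0.5% (v/v) to donor buffer (50 mM MOPSO, pH 6.5, 5.0% glycocholic acid). After 18 h at 37 °C, LC/MS or LC/UV gave donor and acceptor levels for Pe.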
On the technique in general: In PAMPA a lipid-coated filter parts donor from acceptor wells.

As for `CC[C@H](C)[C@@H]1NC(=O)[C@H](CC(C)C)N(C)C(=O)[C@H](Cc2ccccc2)NC(=O)[C@H]([C@@H](C)O)NC(=O)[C@H](CC(C)C)N(C)C(=O)[C@H](C(C)C)N(C)C(=O)[C@@H](C)N(C)C(=O)C[C@@H](C(=O)N2CCCCC2)NC(=O)[C@H](CC(C)C)NC(=O)[C@H](Cc2ccccc2)N(C)C1=O` [DP-432] ([dNMeA][NMeV][NMeL]TF[NMeL]I[NMeF]LD-Piperidide; lactam N-10), the microsomal CLint at 1 uM in series [1] was found to be 396 µL/min/mg. For the same molecule, in series [2], the Papp at 18 hours, 50 µM was determined as 26 ×10⁻⁶ cm/s.
On to `CC[C@H](C)[C@@H]1NC(=O)CN(C)C(=O)[C@H]([C@@H](C)O)NC(=O)[C@H](C(C)C)N(C)C(=O)[C@@H](C)N(C)C(=O)C[C@@H](C(=O)N2CCCCC2)NC(=O)[C@H](CC(C)C)NC(=O)[C@H](Cc2ccccc2)N(C)C(=O)[C@H](CC(C)C)N(C)C(=O)[C@H](C)N(C)C1=O` [DP-433] ([dNMeA][NMeV]T[Sar]I[NMeA][NMeL][NMeF]LD-Piperidide; lactam N-10), for which the microsomal CLint at 1 uM in series [1] was 35 µL/min/mg. Besides, in series [2], the Papp at 18 hours, 50 µM came to 45 ×10⁻⁶ cm/s.
In the case of `CC[C@H](C)[C@@H]1NC(=O)[C@H](Cc2ccccc2)N(C)C(=O)[C@H](CC(C)C)N(C)C(=O)[C@H](Cc2ccccc2)NC(=O)[C@H](C)N(C)C(=O)[C@H]([C@@H](C)O)NC(=O)[C@@H](C)N(C)C(=O)C[C@@H](C(=O)N2CCCCC2)NC(=O)[C@H](CC(C)C)N(C)C(=O)[C@H](C(C)C)N(C)C1=O` [DP-434] ([dNMeA]T[NMeA]F[NMeL][NMeF]I[NMeV][NMeL]D-Piperidide; lactam N-10), the microsomal CLint at 1 uM in series [1] is 166 µL/min/mg. In addition, the Papp at 18 hours, 50 µM in series [2] was 38 ×10⁻⁶ cm/s.
For the molecule `CC(C)C[C@H]1C(=O)N(C)[C@@H](C)C(=O)N(C)[C@@H](CC(C)C)C(=O)N[C@H](C(=O)N2CCCCC2)CC(=O)N(C)[C@H](C)C(=O)N(C)[C@@H](Cc2ccccc2)C(=O)N[C@@H]([C@@H](C)O)C(=O)N(C)[C@@H](C)C(=O)N(C)[C@@H](CC(C)C)C(=O)NCC(=O)N1C` [DP-435] ([dNMeA][NMeF]T[NMeA][NMeL]G[NMeL][NMeA][NMeL]D-Piperidide; lactam N-10), the microsomal CLint at 1 uM in series [1] came out at 41 µL/min/mg. The Papp at 18 hours, 50 µM in series [2] was found to be 16 ×10⁻⁶ cm/s.
For the molecule `CC[C@H](C)[C@@H]1NC(=O)[C@H](Cc2ccccc2)NC(=O)[C@H](CC(C)C)NC(=O)CNC(=O)[C@H]([C@@H](C)O)NC(=O)[C@H](Cc2ccccc2)NC(=O)[C@H](C)N(C)C(=O)C[C@@H](C(=O)N2CCCCC2)NC(=O)[C@H](Cc2ccccc2)NC(=O)[C@H](CC(C)C)N(C)C1=O` [DP-436] ([NMeA]FTGLFI[NMeL]FD-Piperidide; lactam N-10), the microsomal CLint at 1 uM in series [1] was 142 µL/min/mg. Besides, the Papp at 18 hours, 50 µM in series [2] turned out to be 45 ×10⁻⁶ cm/s.
As for `CC(C)C[C@@H]1NC(=O)[C@H](Cc2ccccc2)N(C)C(=O)CNC(=O)[C@H]([C@@H](C)O)NC(=O)[C@H](CC(C)C)N(C)C(=O)[C@H](COC(C)(C)C)NC(=O)[C@H](C)N(C)C(=O)C[C@@H](C(=O)N2CCCCC2)NC(=O)[C@H](Cc2ccccc2)NC(=O)[C@H](CC(C)C)N(C)C1=O` [DP-437] ([NMeA]S(tBu)[NMeL]TG[NMeF]L[NMeL]FD-Piperidide; lactam N-10), the microsomal CLint at 1 uM in series [1] came out at 265 µL/min/mg. In addition, the Papp at 18 hours, 50 µM in series [2] turned out to be 37 ×10⁻⁶ cm/s.
As to `CC(C)C[C@H]1C(=O)N(C)[C@@H](Cc2ccccc2)C(=O)N[C@@H](Cc2ccccc2)C(=O)N(C)[C@@H](C)C(=O)N(C)[C@@H](C(C)C)C(=O)N[C@@H]([C@@H](C)O)C(=O)N[C@H](C(=O)N2CCCCC2)CC(=O)N(C)[C@@H](C)C(=O)N[C@@H](COC(C)(C)C)C(=O)NCC(=O)N1C` [DP-438] ([NMeA]S(tBu)G[NMeL][NMeF]F[NMeA][NMeV]TD-Piperidide; lactam N-10), the microsomal CLint at 1 uM in series [1] was determined as 155 µL/min/mg. Also, in series [2], the Papp at 18 hours, 50 µM turned out to be 38 ×10⁻⁶ cm/s.
For `CC[C@H](C)[C@@H]1NC(=O)[C@H](CC(C)C)N(C)C(=O)[C@H](CC(C)C)N(C)C(=O)[C@H](C)N(C)C(=O)[C@H]([C@@H](C)O)NC(=O)[C@H](C(C)C)N(C)C(=O)[C@H](Cc2ccccc2)NC(=O)CN(C)C(=O)[C@H](C)N(C)C(=O)C[C@@H](C(=O)N2CCCCC2)NC1=O` [DP-439] ([NMeA][Sar]F[NMeV]T[NMeA][NMeL][NMeL]ID-Piperidide; lactam N-10), the microsomal CLint at 1 uM in series [1] was determined as 139 µL/min/mg. In series [2], the Papp at 18 hours, 50 µM was determined as 34 ×10⁻⁶ cm/s.
